According to patent US6204067A, “Methods of identifying modulators of the estrogen receptor” (Board of Trustees Operating Michigan State University, priority 1999, dated 2001):

Experiments:
[1] = tested on: recycling endosomes of MCF-7/ADR cells; test: In vitro acidification of recycling endosomes (FITC-transferrin); type: biochemical
Description: Acidification from the recycling endosomal fraction was monitored by first incubating cells with FITC-transferrin for 30 minutes before lysis and isolation of microsomes. Acidification was monitored by excitation of the FITC fluorophore at 450 and 488 nm and measuring λem =520 nm as described previously.
To specifically examine the acidification of the endosomes in vitro, in vitro acidification was assayed using FITC-transferrin which is constrained by the transferrin receptor to the endocytic pathway. MCF-7/ADR cells were incubated with FITC-transferrin before lysis and isolation of microsomes. Since this assay is not based on the redistribution of probes, it further serves as verification that AO quenching resulted from vesicular acidification. Upon addition of ATP, there was a decrease in the ratio of the FITC-emission (FIG. 1C). This signal was the consequence of acidification, since it was reversed upon the addition of nigericin.

yeast vacuoles = test: Acidification of yeast vacuoles (acridine orange); type: biochemical, S. cerevisiae
Description: Vacuoles from S. cerevisiae were prepared from the protease deficient strain BJ2407 (Yeast Genetic Stock Center, University of California, Berkeley) by sequential floatation through 12% and 8% Ficoll 400 cushion as described previously [Roberts et al., Methods Enzymol, 194:644-661 (1991)] with the single modification that 1× protease inhibitor mix and 1 mM DTT was included in each step. […] Acidification was measured using AO as described above. For acidification in chloride-free solution, gluconate or glutamate was used in vesicle buffer instead of chloride.
ATP (1.5 mM) was added at 50 sec to initiate acidification and at 400 sec nigericin (1 μM) was added to dissipate pH gradients.

[2] = tested on: E. coli inverted membrane vesicles; test: Acidification of E. coli inverted membrane vesicles (acridine orange); type: biochemical; conditions: 0.63 μM, 2 μM, 10 μM; similar dose dependence as mammalian and yeast vesicles
Description: InV were prepared from the DH5α strain as described [Simon and Blobel, Cell 69:677-684 (1992)]. Acidification was measured using AO as described above.
Unlike mammalian or yeast vesicles, InV utilize the F0 F1 -ATPase for acidification and are composed of different types of lipids, including an abundance of cardiolipin and a lack of sterols.

With `CC/C(=C(\c1ccccc1)c1ccc(OCCN(C)C)cc1)c1ccccc1` [tamoxifen] the “effect on ATP-dependent acidification of recycling endosomes” value ([1]; 2.5 μM added after ATP) was “partially reversed the acidification”, the “effect on ATP-dependent acidification of recycling endosomes” value ([1]; concentration raised an additional 2.5 μM) was “farher reduced” and the “effect of addition to pre-acidified vacuoles” value (yeast vacuoles; added at 250 sec, tamoxifen 2 μM, ammonium 1 mM) was “rapid alkaline step followed by slower alkalinization”. The “concentration giving complete inhibition of acidification” value (yeast vacuoles; pre-equilibrated, 1.5 mM ATP, KCl buffer) was 8 µM, the “inhibition of vacuole acidification” value (yeast vacuoles; pre-equilibrated, tamoxifen 2 μM or 8 μM, ammonium chloride 1 mM) was “dose dependent inhibition of acidification” and the “effect on ATP-dependent acidification of InV” value [2] was “inhibited acidification”.
